Results published in patent US20170100374A1, “POTENTIATOR-CORRECTOR COMBINATIONS USEFUL IN THE TREATMENT OF CYSTIC FIBROSIS” (AbbVie S.à.r.l., priority 2015, published 2017).

Experiments:
[1] = target: T1, HEK293 wild type CFTR membrane fractions (Homo sapiens, UniProt P13569); assay: Back-Scattering Interferometry (Molecular Sensing) binding to CFTR membrane fractions
T1 construct: expressed in transfected cells; host or cells: HEK293 (membrane fractions)
Procedure: TruBind™ Back-Scattering Interferometry (BSI) (Molecular Sensing GmbH) can be used to determine binding constants of different compounds to CFTR-expressing cells.
HEK293 wild type CFTR and HEK293 control membrane fractions are used as 100 μg (total protein amount) aliquots in 50 mM Tris-HCl pH 7.5, 1 mM EDTA, 10% Glycerol+PIC and stored at −80° C.
The buffer used for the assays is 50 mM Tris-HCl pH 7.5, 1 mM EDTA with 1.2% DMSO. The refractive index of the assay buffer and the compound are matched and then a 2x serial dilution is done in polypropylene dilution reservoirs.
A thawed aliquot of HEK293.CFTRwt as well as a thawed aliquot of HEK293 control membrane fractions is diluted to 10 mL in 50 mM Tris-HCl pH 7.5, 1 mM EDTA with 1.2% DMSO. The refractive index of the assay buffer and the two membrane fractions are matched by adding water to the membrane fractions.
Compound and target are mixed 1:1 in 96-well PCR microtiter plates to a final volume of 150 μL and heat sealed with foil. The assays are allowed to incubate at room temperature for 4 hours before being run on the BSI instrument. Wells are pierced individually prior to sample injection and measurement of BSI signal (each well is analyzed in quadruplicates). […]
The final data for the difference curve is exported to Graphpad Prism® and analyzed using a one-site binding equation to determine a Kd for the assay. […]

[2] = target: T2, F508del-CFTR (Homo sapiens, UniProt P13569, DEL508-508); details: patients having F508del-CFTR class II mutation (Flume et al., 2012); cited from earlier work
T2 construct: host or cells: CF patients
T2 sequence (P13569 with tags, fused parts or gaps DEL508-508): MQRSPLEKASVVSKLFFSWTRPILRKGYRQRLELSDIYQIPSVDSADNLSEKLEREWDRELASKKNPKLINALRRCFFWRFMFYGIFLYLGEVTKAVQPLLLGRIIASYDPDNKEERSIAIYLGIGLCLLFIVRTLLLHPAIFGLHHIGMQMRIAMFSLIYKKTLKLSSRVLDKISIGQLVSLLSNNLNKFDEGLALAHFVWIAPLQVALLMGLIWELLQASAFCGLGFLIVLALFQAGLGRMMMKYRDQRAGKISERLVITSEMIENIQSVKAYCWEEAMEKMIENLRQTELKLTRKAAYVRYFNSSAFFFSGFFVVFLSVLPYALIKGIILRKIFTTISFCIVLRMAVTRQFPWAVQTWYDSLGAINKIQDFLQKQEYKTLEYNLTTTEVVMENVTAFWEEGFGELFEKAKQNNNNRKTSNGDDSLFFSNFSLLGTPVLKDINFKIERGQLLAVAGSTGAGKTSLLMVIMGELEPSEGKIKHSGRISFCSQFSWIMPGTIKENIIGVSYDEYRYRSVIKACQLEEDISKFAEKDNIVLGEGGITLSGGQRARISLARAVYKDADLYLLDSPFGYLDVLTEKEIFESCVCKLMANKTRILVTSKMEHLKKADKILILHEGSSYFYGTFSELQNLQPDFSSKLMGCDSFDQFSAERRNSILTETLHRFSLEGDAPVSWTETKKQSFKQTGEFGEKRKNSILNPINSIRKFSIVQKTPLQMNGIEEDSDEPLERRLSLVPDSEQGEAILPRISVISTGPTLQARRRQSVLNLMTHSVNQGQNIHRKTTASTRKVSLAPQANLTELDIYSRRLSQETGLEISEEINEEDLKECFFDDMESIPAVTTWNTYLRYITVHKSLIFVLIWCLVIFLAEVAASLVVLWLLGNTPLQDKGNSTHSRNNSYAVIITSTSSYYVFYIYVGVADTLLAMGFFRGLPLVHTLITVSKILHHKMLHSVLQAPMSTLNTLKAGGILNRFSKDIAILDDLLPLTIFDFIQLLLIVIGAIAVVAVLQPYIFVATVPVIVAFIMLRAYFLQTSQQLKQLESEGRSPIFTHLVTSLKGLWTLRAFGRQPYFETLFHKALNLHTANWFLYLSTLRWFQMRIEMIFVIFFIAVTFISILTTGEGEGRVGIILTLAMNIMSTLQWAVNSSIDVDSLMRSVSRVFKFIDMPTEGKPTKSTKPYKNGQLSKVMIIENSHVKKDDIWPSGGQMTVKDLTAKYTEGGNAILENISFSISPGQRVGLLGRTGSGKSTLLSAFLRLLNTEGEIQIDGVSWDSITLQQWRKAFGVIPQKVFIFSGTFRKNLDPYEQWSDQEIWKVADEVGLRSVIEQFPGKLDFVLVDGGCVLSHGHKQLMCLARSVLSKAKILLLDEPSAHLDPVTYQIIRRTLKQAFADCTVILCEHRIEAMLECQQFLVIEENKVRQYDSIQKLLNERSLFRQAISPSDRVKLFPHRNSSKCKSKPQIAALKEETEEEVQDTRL

[3] = test system: CFTR; details: patients with CF (Wilschanski et al., 2003); cited from earlier work

T1 sequence (P13569 whole entry): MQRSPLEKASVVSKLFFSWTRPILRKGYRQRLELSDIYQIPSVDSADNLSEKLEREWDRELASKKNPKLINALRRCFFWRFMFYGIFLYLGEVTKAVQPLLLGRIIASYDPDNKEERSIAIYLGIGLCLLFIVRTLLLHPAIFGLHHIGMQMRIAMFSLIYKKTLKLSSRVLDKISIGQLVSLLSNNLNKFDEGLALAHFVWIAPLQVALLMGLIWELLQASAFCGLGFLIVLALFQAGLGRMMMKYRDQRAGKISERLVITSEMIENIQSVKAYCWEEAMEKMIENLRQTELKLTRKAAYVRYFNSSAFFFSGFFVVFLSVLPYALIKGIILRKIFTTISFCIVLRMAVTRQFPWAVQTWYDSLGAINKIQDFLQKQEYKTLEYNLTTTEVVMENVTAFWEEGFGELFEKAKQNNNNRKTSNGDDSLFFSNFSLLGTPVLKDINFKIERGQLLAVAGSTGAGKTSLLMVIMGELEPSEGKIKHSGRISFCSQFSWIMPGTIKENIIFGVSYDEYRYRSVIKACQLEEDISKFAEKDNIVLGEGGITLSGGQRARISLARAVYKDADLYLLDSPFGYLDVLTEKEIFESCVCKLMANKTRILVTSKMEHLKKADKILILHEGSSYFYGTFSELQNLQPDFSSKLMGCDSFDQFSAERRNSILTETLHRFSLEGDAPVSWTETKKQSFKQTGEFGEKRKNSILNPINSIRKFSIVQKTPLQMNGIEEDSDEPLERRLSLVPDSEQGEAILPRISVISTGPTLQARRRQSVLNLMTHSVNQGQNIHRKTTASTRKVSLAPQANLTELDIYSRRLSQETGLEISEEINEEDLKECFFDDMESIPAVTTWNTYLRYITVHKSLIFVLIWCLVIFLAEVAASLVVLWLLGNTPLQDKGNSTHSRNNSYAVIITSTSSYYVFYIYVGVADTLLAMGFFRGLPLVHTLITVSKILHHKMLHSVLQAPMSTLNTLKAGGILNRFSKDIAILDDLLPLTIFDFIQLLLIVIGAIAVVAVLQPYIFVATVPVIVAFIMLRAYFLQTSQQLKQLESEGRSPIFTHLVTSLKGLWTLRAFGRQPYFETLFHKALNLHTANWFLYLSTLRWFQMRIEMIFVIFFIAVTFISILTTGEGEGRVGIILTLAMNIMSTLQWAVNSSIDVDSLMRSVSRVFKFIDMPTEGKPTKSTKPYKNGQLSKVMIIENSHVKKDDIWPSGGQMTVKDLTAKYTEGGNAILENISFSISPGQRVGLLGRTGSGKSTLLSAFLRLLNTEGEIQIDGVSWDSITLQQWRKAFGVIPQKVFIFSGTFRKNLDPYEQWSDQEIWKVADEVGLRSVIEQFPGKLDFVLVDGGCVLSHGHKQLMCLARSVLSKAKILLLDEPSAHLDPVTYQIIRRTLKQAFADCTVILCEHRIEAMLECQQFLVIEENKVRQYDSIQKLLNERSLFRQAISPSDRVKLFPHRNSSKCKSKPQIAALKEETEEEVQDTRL

COc1ccc2c(c1)O[C@@H](c1ccc(C(=O)O)cc1)C[C@H]2NC(=O)C1(c2ccc3c(c2)OC(F)(F)O3)CC1 [C1]
Kd ([1]; binding to wild-type CFTR membrane fractions, control membrane fractions subtracted, one-site binding fit): 94.7 ± 26.5 nM | binding affinity to the membrane fraction of CFTR (in words) ([1]; comment on Table 1): binding affinity similar to the known correctors acting on CFTR

CC(C)(C)c1cc(C(C)(C)C)c(NC(=O)c2c[nH]c3ccccc3c2=O)cc1O [VX-770]
therapeutic efficacy in patients [2]: no significant therapeutic efficacy

gentamicin
change in Nasal Potential Difference (NPD) values [3]: small changes
